Reference: patent US20110021621A1, “Drug for treating circulatory insufficiency” (ACTIVUS PHARMA CO., LTD., priority 2005, published 2011)
Structures can show the parent of a compound that is named as a salt. Where two headings read alike, the source gives them in different places. Values belong to the compound of their own block, whether it stands above or below them.

How the values were obtained:
[1] = system: circulatory insufficiency model of rats induced by injection of lauric-acid into their femoral artery; experiment: Circulatory insufficiency model induced by lauric-acid in rats (lesion index); format: in vivo, rat; set-up: key: summed toe lesion grades, +5 if heel reached; max 25 points; settings: male Wistar rats, average, max 25 points
Method: We performed this test in order to evaluate the pharmacological effect of the compounds of the present invention using a circulatory insufficiency model of rats induced by injection of lauric-acid into their femoral artery.
13-week-old male Wistar rats (body weight is 280 to 316 g), 8 rats per one group, were used. The rats were held in a supine position under anesthesia due to administration of 40 mg/kg of sodium pentobarbital by intraperitoneal injection. Then, the right femoral area was incised, thereby injecting 0.15 mL of 10 mg/mL lauric-acid solution into the femoral artery in order to induce lower limb gangrene caused by the peripheral vascular disorder. A few drops of instant adhesive (Aron-alpha; registered trademark) were used to stop bleeding, followed by topical application of antibiotics (potassium penicillin G solution) to prevent infection, and the incision site was then sutured.
The suspension was administered, by means of multiple oral dosing, 1 hour prior to and 3 hours after injection of lauric-acid and twice daily (at 10:00 and 17:00) for the following 9 days, at the dose of 30 mg/kg for each compound. […] The suspension was administered orally 3 hours prior to injection of lauric-acid at the dose of 300 mg/kg.
The extent of lesions was evaluated 3 days and 10 days after injection of lauric acid by the following criteria:
The lesion of each toe was graded and the total points of 5 toes were use as a lesion index, wherein 5 points were further added when the lesion reached the heel (i.e. the maximum lesion index was 25 points).
The shown number refers to the average value of the lesion index obtained from the evaluation.

[2] = Stability test in acidic or basic solution (half-life by liquid chromatography); format: physicochemical; settings: time to 50% residual rate; for Half-life, pH 3.4 solution: phosphate buffer pH 3.4; for Half-life, pH 3.4 solution / Half-life, pH 7.3 solution: 1 mmoL/L, 37° C.; for Half-life, pH 7.3 solution: phosphate buffer pH 7.3
Method: The test compounds were dissolved in an acidic solution (phosphate buffer (pH3.4)) and in a basic solution (phosphate buffer (pH7.3)) at the concentration of 1 mmoL/L. Immediately after they were dissolved, each solution was analyzed with liquid chromatography using an acidic solution (phosphate buffer (pH3.4)) or basic solution (phosphate buffer (pH7.3)) as an eluent. The peak area of the test compounds was measured as the initial value. Furthermore, a time-course analysis with liquid chromatograpy was conducted to measure the peak area at each time point. The solution containing the test compound was kept in an incubator at 37° C. Based on the measured peak area of the test compounds, the percentage (%) of the peak area at each measurement time point was calculated, taking the peak area of the initial value as 100(%). The half-life (the time to show a 50% residual rate of the test compounds) of the test compounds was further calculated, and its stability was evaluated based on the half-life.

[3] = system: bleeding time in male SD rats; experiment: Effect on bleeding time in rats (tail cutting); settings: 30 mg/kg oral, max observation 60 min
Method: (§1) 5-week-old male SD rats (body weight is 138 to 152 g), 6 rats per one group, were used. […] 50 minutes after the administration, 50 mg/kg of pentobarbital sodium was intraperitoneally injected into the rat.
(§2) 10 minutes later, the tail was cut off at a position of 2 mm from the tip using a surgical blade, and was immediately immersed into a glass container (Magnus bath) filled with physiological saline maintained at approximately 37° C. to observe until the rat stopped bleeding.
(§3) The bleeding time was taken as the time from the tail cutting to the cessation of bleeding. The tail was marked at a position of 5 cm from the tip in advance, and was immersed in the physiological saline in the glass container at the depth of 5 cm from the surface. The maximum observation time was defined as 60 minutes after the tail cutting.

[4] = Bioabsorption: plasma concentration measurement in rats with oral administration; format: in vivo, rat; settings: for concentration at 0.25 h: read-out: plasma concentration, Mean, time point 0.25 h; for concentration at 0.5 h: read-out: plasma concentration, Mean, time point 0.5 h; for concentration at 1 h: read-out: plasma concentration, Mean, time point 1.0 h; for concentration at 2 h: read-out: plasma concentration, Mean, time point 2.0 h; for concentration at 4 h: read-out: plasma concentration, Mean, time point 4.0 h; for concentration at 6 h: read-out: plasma concentration, Mean, time point 6.0 h; for concentration at 8 h: read-out: plasma concentration, Mean, time point 8.0 h; for AUC: read-out: AUC (area under the plasma concentration-time curve); for Cmax: read-out: Cmax (maximum plasma concentration); for Tmax: read-out: Tmax (time required to reach the maximum plasma concentration)
Method: We conducted a plasma concentration measurement in rats with oral administration to compare the absorption of the compound of the present invention (compound No. 451) with the comparative compound A and B.
6-week-old male SD rats (body weight is 200 to 230 g) were used for this test (3 rats per one group). The required amount of test compound was weighed and pulverized in an agate mortar. Then, a 0.5 (w/v) % methyl cellulose solution was added to prepare the suspension at the concentration of 10 mg/5 mL. 5 mL per kg body weight of the suspension was orally administered to rats once using a feeding tube for rats. About 0.3 mL of blood was sampled from the caudal vein using a heparinized glass tube at 0.25, 0.5, 1, 2, 4, 6, 8, 12 and 24 hours after the administration, and was centrifuged to obtain plasma.
30 μL of methanol and 300 µL of acetonitrile were added to 120 μL of the obtained plasma, and mixed with a Vortex mixer for 15 seconds. The sample was centrifuged to obtain 300 μL of the supernatant. The supernatant was dried, and 120 μL of an eluent was added thereto, and then mixed with a Vortex mixer for 15 seconds. After the mixture was centrifuged, the amount of each test compound remaining in the plasma was determined with liquid chromatography.
40 μL of the sample, as prepared above, was applied to liquid chromatography with the following conditions to conduct the measurement.
• Column: InertsiL (registered trademark) ODS-3 4.6 mmI.D.×250 mm; • Column temperature: 40° C.; • Eluent: Solution A (10 mmoL/L ammonium acetate:methanol=50:50), and Solution B (10 mmoL/L ammonium acetate:methanol=10:90); • Gradient condition (eluent composition): solution A→20 min.→solution B (5 min. elution)→1 min.→solution A (12 min. elution); • Flow rate: 1.0 mL; and • Detection wavelength: 314 nm.
• Column: InertsiL (registered trademark) ODS-3 4.6 mmI.D.×150 mm; • Column temperature: 40° C.; • Eluent: Solution A (aqua:methanol:acetic acid=90:10:0.5), and Solution B (aqua:methanol:acetic acid=10:90:0.5); • Gradient condition (eluent composition): solution A→20 min.→solution B (5 min. elution)→1 min.→solution A (12 min. elution); • Flow rate: 1.0 mL; and • Detection wavelength: 323 nm.
• Column: InertsiL (registered trademark) ODS-3 4.6 mmI.D.×150 mm; • Column temperature: 40° C.; • Eluent: Solution A (pH=2.2 phosphate buffer:acetonitrile=90:10), and Solution B (pH=2.2 phosphate buffer:acetonitrile=10:90); • Gradient condition (eluent composition): Solution A→10 min.→Solution B (2.5 min. elution)→0.5 min.→Solution A (9 min. elution); • Flow rate: 2.0 mL; and
Detection wavelength: 315nm.
Based on the peak area obtained in the liquid chromatography analysis with respect to 1 μg/mL of each test compound in plasma, the plasma concentration (μg/mL) at each time point was calculated.

[5] = system: bleeding time in male SD rats; settings: rat, in vivo, po
Method: as §1, §2, §3

[6] = 30 mg/kg multiple oral dosing (1 h prior to and 3 h after lauric-acid, then twice daily for 9 days), 10 days after lauric-acid injection
[7] = 30 mg/kg multiple oral dosing (1 h prior to and 3 h after lauric-acid, then twice daily), 3 days after lauric-acid injection
[8] = 60 min between oral dosing and the tail cutting
[9] = 180 min between oral dosing and the tail cutting
[10] = phosphate buffer pH 3.4, 37° C., read-out: Half-life, pH 3.4 solution (converted)
[11] = phosphate buffer pH 7.3, 37° C., read-out: Half-life, pH 7.3 solution (converted)
[12] = male, SD, rat, plasma, 10 mg/kg, 0.25 h
[13] = male, SD, rat, plasma, 10 mg/kg, 0.5 h
[14] = male, SD, rat, plasma, 10 mg/kg, 1.0 h
[15] = male, SD, rat, plasma, 10 mg/kg, 2.0 h
[16] = male, SD, rat, plasma, 10 mg/kg, 4.0 h
[17] = male, SD, rat, plasma, 10 mg/kg, 6.0 h
[18] = male, SD, rat, plasma, 10 mg/kg, 8.0 h
[19] = male, SD, rat, plasma, 10 mg/kg, from administration to 24 hours
[20] = male, SD, rat, plasma, 10 mg/kg

Compound: CCCCCCCCOc1c(O)c2ccc(OCCC(=O)O)cc2oc1=O [Compound 525]
Lesion Index after 10 days [1, 6]: 7.8 | Lesion Index after 3 days [1, 7]: 2.9 | Half-life, pH 3.4 solution [2]: >>100 hr | Half-life, pH 7.3 solution [2]: >>100 hr | Bleeding time [3, 8]: 8.5 min | Bleeding time [3, 9]: 8.1 min

Compound: CCCCCCOc1c(O)c2ccc(O)cc2oc1=O [Compound 125]
Lesion Index after 10 days [1, 6]: 8.1 | Lesion Index after 3 days [1, 7]: 2.6 | Half-life, pH 3.4 solution [2]: >>100 hr | Half-life, pH 7.3 solution [2]: >>100 hr | Bleeding time [3, 8]: 8.0 min | Bleeding time [3, 9]: 8.4 min

Compound: Clc1ccccc1CN1CCc2sccc2C1 [ticlopidine hydrochloride, reference compound]
Lesion Index after 3 days ([1]; positive control, 300 mg/kg orally 3 hours prior to lauric-acid injection, 3 days after injection): 2.8 | Lesion Index after 10 days ([1]; positive control, 300 mg/kg orally 3 hours prior to lauric-acid injection, 10 days after injection): 7.4 | Bleeding time ([5]; 300 mg/kg, 180 min): 36.1 min

Compound: O=c1oc2ccccc2c(O)c1O [comparative compound A]
half-life at 1 mmoL/L [2, 10]: 30 h | half-life at 1 mmoL/L [2, 11]: 65 h | plasma concentration, Mean, time point 12.0 h ([4]; 12.0 h): Not detected | plasma concentration, Mean, time point 24.0 h ([4]; 24.0 h): Not detected | concentration at 0.25 h [4, 12]: 600 ng/mL | concentration at 0.5 h [4, 13]: 300 ng/mL | concentration at 1 h [4, 14]: 300 ng/mL | concentration at 2 h [4, 15]: 300 ng/mL | concentration at 4 h [4, 16]: 300 ng/mL | concentration at 6 h [4, 17]: 300 ng/mL | concentration at 8 h [4, 18]: 200 ng/mL | AUC [4, 19]: 2200 ± 100 ng·h/mL | Cmax [4, 20]: 600 ± 100 ng/mL | Tmax [4, 20]: 0.25 h

Compound: CCCCCCOc1c(O)c2ccc(OCCO)cc2oc1=O [Compound 445]
Lesion Index after 10 days [1, 6]: 7.5 | Lesion Index after 3 days [1, 7]: 2.7 | Bleeding time [3, 8]: 9.1 min | Bleeding time [3, 9]: 8.3 min

Compound: CCOc1c(O)c2ccc(OC)cc2oc1=O [Compound 144]
Lesion Index after 10 days [1, 6]: 7.2 | Lesion Index after 3 days [1, 7]: 2.5 | Bleeding time [3, 8]: 8.9 min | Bleeding time [3, 9]: 8.2 min

Compound: O=c1oc2ccc(Cl)cc2c(O)c1O [B]
half-life at 1 mmoL/L [2, 10]: 53 h | half-life at 1 mmoL/L [2, 11]: 70 h | concentration at 0.25 h [4, 12]: 7400 ng/mL | concentration at 0.5 h [4, 13]: 4100 ng/mL | concentration at 1 h [4, 14]: 2000 ng/mL | concentration at 2 h [4, 15]: 1400 ng/mL | concentration at 4 h [4, 16]: 300 ng/mL | concentration at 6 h [4, 17]: 100 ng/mL | concentration at 8 h [4, 18]: 100 ng/mL | concentration at 12 h ([4]; male, SD, rat, plasma, 10 mg/kg, 12.0 h, read-out: plasma concentration, Mean, time point 12.0 h): 0 ng/mL | concentration at 24 h ([4]; male, SD, rat, plasma, 10 mg/kg, 24.0 h, read-out: plasma concentration, Mean, time point 24.0 h): 0 ng/mL | AUC [4, 19]: 8300 ± 2600 ng·h/mL | Cmax [4, 20]: 7400 ± 200 ng/mL | Tmax [4, 20]: 0.25 h

Further lines, with some results ahead:

Half-life, pH 3.4 solution [2]: >>100 hr | Half-life, pH 7.3 solution [2]: >>100 hr | Bleeding time [3, 8]: 7.8 min | Bleeding time [3, 9]: 7.5 min | Cmax (maximum plasma concentration) [4]: 25100 ± 13300 ng/mL | Tmax (time required to reach the maximum plasma concentration) [4]: 0.3 ± 0.1 h | plasma concentration, Mean, time point 0.25 h ([4]; 0.25 h): 23600 ng/mL | plasma concentration, Mean, time point 0.5 h ([4]; 0.5 h): 23600 ng/mL | plasma concentration, Mean, time point 1.0 h ([4]; 1.0 h): 17900 ng/mL | plasma concentration, Mean, time point 2.0 h ([4]; 2.0 h): 11800 ng/mL | plasma concentration, Mean, time point 4.0 h ([4]; 4.0 h): 9200 ng/mL | plasma concentration, Mean, time point 6.0 h ([4]; 6.0 h): 6800 ng/mL | plasma concentration, Mean, time point 8.0 h ([4]; 8.0 h): 3000 ng/mL | plasma concentration, Mean, time point 12.0 h ([4]; 12.0 h): 1200 ng/mL | plasma concentration, Mean, time point 24.0 h ([4]; 24.0 h): 500 ng/mL | AUC (area under the plasma concentration-time curve) ([4]; from administration to 24 hours): 99500 ± 64400 ng·h/mL
Compound: CCCCCCCCOc1c(O)c2ccc(OCCO)cc2oc1=O [Compound 451]
Lesion Index after 10 days [1, 6]: 7.2 | Lesion Index after 3 days [1, 7]: 2.6

Bleeding time ([5]; 100 mg/kg, 60 min): 40.2 min
Compound: CC(=O)Oc1ccccc1C(=O)O [aspirin]

Bleeding time ([5]; 300 mg/kg, 60 min): 50.1 min
Compound: O=C1CCc2cc(OCCCCc3nnnn3C3CCCCC3)ccc2N1 [cilostazol]

Bleeding time ([5]; 1 mg/kg, 60 min): 42.2 min
Compound: CC#CCC(C)[C@H](O)/C=C/[C@@H]1[C@H]2c3cccc(CCCC(=O)O)c3O[C@H]2C[C@H]1O (mixture of isomers) [beraprost sodium]
